Measurements: patent publication US10793567B2, “Bicyclic inhibitors of histone deacetylase” (Rodin Therapeutics, Inc., priority 2017, dated 2020)

Assays:
[1] = molecular target: HDAC2 (Homo sapiens (Human), UniProt Q92769); test: HDAC2 enzymatic inhibition assay in SY5Y cell lysate (HDAC-Glo 2); format: cell-based; details: SH-SY5Y cells, five hours incubation
Description: SH-SY5Y cells (Sigma) were cultured in Eagle's Modified Essential Medium supplemented with 10% fetal bovine serum and pen/strep. Twenty-four hours prior to compound dosing 20 uL of cells were plated in white 384 well plates at a density of 1,500 cells/well. Compounds were serially diluted in neat DMSO and then diluted 1:100 v/v into media without FBS and mixed. Media was removed from the plated cells and the diluted compounds in serum free media (1% v/v final DMSO) were added and incubated at 37.0 for five hours. Ten uL of HDAC-Glo 2 reagent with 0.1% Triton X-100 was then added, the plate was mixed and allowed to develop at room temperature for 100 minutes. Plates were then read with a Spectramax LMax luminometer employing a 0.4 s integration time. Dose response curves were constructed with normalized data where CI-994 at 100 uM was defined as 100% inhibition and DMSO alone as 0% inhibition.

[2] = system: human megakaryocyte progenitors (CFU-Mk); test: Human megakaryocyte progenitor CFC proliferation (CFU-Mk) in normal bone marrow; format: cell-based; details: for IC50: Homo sapiens, 6-point dose response, top concentration 20 μM, read-out: CFU-Mk Total IC50; for % Control CFU-Mk Total @ 10 uM dose: 3-point dose response
Description: Compounds were tested to evaluate the potential effects on human megakaryocyte progenitor proliferation in the CFU-Mk assay. Clonogenic progenitors of the human megakaryocyte (CFU-Mk) lineage were assessed in a semi-solid, collagen-based matrix containing rhIL-3 (10 ng/mL), rhIL-6 (10 ng/mL) and rhTpo (50 ng/mL).
Normal human bone marrow light density cells (lot #0170525), derived from normal bone marrow (NorCal Biologics, California), were stored at −152° C. until required for the assay. On the day of the experiment, the cells were thawed rapidly, the contents of each vial was diluted in 10 mL of Iscove's modified Dulbecco's medium containing 10% fetal bovine serum (IMDM+10% FBS) and washed by centrifugation (approximately 1200 r.p.m. for 10 minutes, room temperature). The supernatant was discarded and the cell pellets resuspended in a known volume of IMDM+10% FBS. A cell count (3% glacial acetic acid) and viability assessment (trypan blue exclusion test) was performed for the bone marrow sample.
All compounds were used as solutions in DMSO at 10 mM. Two different dosing paradigms were used depending on the study, either a six point dose response with top concentration of 20 μM, or a three point dose response with a top concentration of 10 μM. In six point dose response studies, compounds were tested at six distinct concentrations (20, 6.7, 2.2, 0.74, 0.25 and 0.082 μM), with serial dilutions prepared from the 10 mM stock concentration to achieve concentrations of 6.7, 2.2, 0.74, 0.25 and 0.082 mM. When added to the collagen-based media at 1:1000 (v/v), the final desired test concentrations were achieved. In order to generate the 20 μM final concentration, 8 μL of the 10 mM stock was added to the appropriately labeled tube. For the three point dose response studies, serial dilutions were prepared from the stock concentration to achieve concentrations of 2 and 0.4 mM. When added to the collagen-based media at 1:1000 (v/v), the final test concentrations of 10, 2 and 0.4 μM were achieved.
Clonogenic progenitors of the human megakaryocytic (CFU-Mk) lineages were set up in the media formulation described above. All compounds were added to the medium to give the final desired concentrations (20, 6.67. 2.22, 0.74, 0.25, and 0.082 μM). Solvent control cultures (containing no compound but 0.2% DMSO), as well as a standard control (containing no compound and no DMSO), were also initiated.
Human megakaryocyte progenitor assays were initiated with 1.8×10^5 cells per culture (lot #0170525). Following 14-16 days in culture, the cultures were transferred from the 35 mm dishes to labeled glass slides, were fixed (methanol/acetone) and then stained using an anti-human CD41 antibody and an alkaline phosphate detection system according to manufacturers' instructions. The colonies were assessed microscopically and scored by trained personnel and divided into the following categories based on size; CFU-Mk (3-20), CFU-Mk (21-49), CFU-Mk (≥50).
The mean±1 standard deviation of three replicate cultures was calculated for the progenitors. Two-tailed standard t-tests were performed to assess if there was a difference in the number of colonies generated between solvent control and treated cultures. Due to the potential subjectivity of colony enumeration, a p value of less than 0.01 is deemed significant. To calculate the concentration of 50% inhibition of colony growth (IC50) for each compound, a dose response curve was generated plotting the log of the compound concentration versus the percentage of control colony growth using Graphpad Prism 7.
Megakaryocyte colony enumeration was performed by trained personnel. In addition, the distribution of colony types as well as general colony and cellular morphology was analyzed. The variance in colony number detected in replicate cultures was representative of the historical coefficient of variation for colony enumeration using these types of assays. […]

Chain of HDAC2 (Q92769 whole entry): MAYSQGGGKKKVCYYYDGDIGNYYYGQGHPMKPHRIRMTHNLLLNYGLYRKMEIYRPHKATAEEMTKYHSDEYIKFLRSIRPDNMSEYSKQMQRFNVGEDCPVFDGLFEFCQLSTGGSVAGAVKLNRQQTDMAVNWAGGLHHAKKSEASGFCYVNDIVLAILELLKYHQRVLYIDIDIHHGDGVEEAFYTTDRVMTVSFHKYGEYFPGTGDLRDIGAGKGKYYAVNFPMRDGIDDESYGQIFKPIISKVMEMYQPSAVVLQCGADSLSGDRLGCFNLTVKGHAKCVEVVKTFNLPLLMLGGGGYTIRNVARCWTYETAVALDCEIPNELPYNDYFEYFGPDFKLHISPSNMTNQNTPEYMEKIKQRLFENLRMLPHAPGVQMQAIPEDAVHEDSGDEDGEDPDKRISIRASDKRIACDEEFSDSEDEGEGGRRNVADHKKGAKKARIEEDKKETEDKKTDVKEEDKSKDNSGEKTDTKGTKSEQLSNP

Structure (SMILES)	IC50 [1] [nM]	IC50 [2] [nM]	% Control CFU-Mk Total @ 10 uM dose [2] [%]
CCc1cc2c(cn1)CN(C(=O)Nc1nc(-c3cccnc3)ccc1N)C2 [Compound 8]	100 to 1000	–	–
Cc1ncc2c(n1)CN(C(=O)Nc1nc(-c3ccc(F)s3)ccc1N)C2 [Compound 2]	1000 to 1500	2000	–
Nc1ccc(-c2ccc(F)cc2)nc1NC(=O)N1Cc2cn(C3COC3)nc2C1 [Compound 1]	100 to 1000	–	–
CCc1ncc2c(n1)CN(C(=O)Nc1nc(-c3cccs3)ccc1N)C2 [Compound 3]	100 to 1000	2000	–
Cc1ncc(-c2ccc(N)c(NC(=O)N3Cc4cn(CC(F)F)nc4C3)n2)s1 [Compound 5]	100 to 1000	–	36

Second part, led by results:

IC50 [1] [nM]	Structure (SMILES)	IC50 [2] [nM]	% Control CFU-Mk Total @ 10 uM dose [2] [%]
1000 to 1500	CCc1ncc2c(n1)CN(C(=O)Nc1nc(-c3ccc(F)cc3)ccc1N)C2 [Compound 17]	–	28
100 to 1000	Cc1ncc2c(n1)CN(C(=O)Nc1nc(-c3ccc(F)cc3)ccc1N)C2 [Compound 14]	–	31
100 to 1000	Cc1cc2c(cn1)CN(C(=O)Nc1nc(-c3cccnc3)ccc1N)C2 [Compound 12]	> 20000	–
100 to 1000	COCCn1cc2c(n1)CN(C(=O)Nc1nc(-c3ccc(F)cc3F)ccc1N)C2 [Compound 9]	10800	–
